{"source": "ChEMBL document CHEMBL1649262", "about": "“Nosocomial spread of colistin-only-sensitive sequence type 235 Pseudomonas aeruginosa isolates producing the extended-spectrum beta-lactamases GES-1 and GES-5 in Spain” (2009)", "key": {"[1]": {"system": "Pseudomonas aeruginosa", "experiment": "Antibacterial activity against mexB and mexY expressing Pseudomonas aeruginosa PA-A1 harboring GyrA T83I, ParC S87L and IS1001 insertion at position 629 in OprD gene by Etest method", "type": "functional"}, "[2]": {"system": "Pseudomonas aeruginosa", "experiment": "Antibacterial activity against Pseudomonas aeruginosa PAO1 by Etest method", "type": "functional"}, "[3]": {"system": "Pseudomonas aeruginosa", "experiment": "Antibacterial activity against Pseudomonas aeruginosa PAO1 harboring plasmid pA1 by Etest method", "type": "functional"}, "[4]": {"system": "Pseudomonas aeruginosa", "experiment": "Antibacterial activity against mexB and mexY expressing Pseudomonas aeruginosa PA-A3 harboring GyrA T83I, ParC S87L and IS1001 insertion at position 629 in OprD gene by Etest method", "type": "functional"}, "[5]": {"system": "Pseudomonas aeruginosa", "experiment": "Antibacterial activity against mexB and mexY expressing Pseudomonas aeruginosa PA-A2 harboring GyrA T83I, ParC S87L and IS1001 insertion at position 629 in OprD gene by Etest method", "type": "functional"}, "[6]": {"system": "Pseudomonas aeruginosa", "experiment": "Antibacterial activity against Pseudomonas aeruginosa PAO1 harboring plasmid pA1 by Etest in presence of clavulanic acid"}, "[7]": {"system": "Pseudomonas aeruginosa", "experiment": "Antibacterial activity against Pseudomonas aeruginosa PAO1 harboring plasmid pA1 by Etest method in presence of Tazobactam", "type": "functional"}, "[8]": {"system": "Pseudomonas aeruginosa", "experiment": "Antibacterial activity against mexB and mexY expressing Pseudomonas aeruginosa PA-A1 harboring GyrA T83I, ParC S87L and IS1001 insertion at position 629 in OprD gene by Etest method in presence of Tazobactam", "type": "functional"}, "[9]": {"system": "Pseudomonas aeruginosa", "experiment": "Antibacterial activity against mexB and mexY expressing Pseudomonas aeruginosa PA-A3 harboring GyrA T83I, ParC S87L and IS1001 insertion at position 629 in OprD gene by Etest method in presence of Tazobactam", "type": "functional"}, "[10]": {"system": "Pseudomonas aeruginosa", "experiment": "Antibacterial activity against mexB and mexY expressing Pseudomonas aeruginosa PA-A2 harboring GyrA T83I, ParC S87L and IS1001 insertion at position 629 in OprD gene by Etest method in presence of Tazobactam", "type": "functional"}, "[11]": {"system": "Pseudomonas aeruginosa", "experiment": "Antibacterial activity against Pseudomonas aeruginosa PAO1 by Etest method in presence of Tazobactam", "type": "functional"}}}
{"compound": "NCC[C@H](O)C(=O)N[C@@H]1C[C@H](N)[C@@H](O[C@H]2O[C@H](CN)[C@@H](O)[C@H](O)[C@H]2O)[C@H](O)[C@H]1O[C@H]1O[C@H](CO)[C@@H](O)[C@H](N)[C@H]1O", "note": "[AMIKACIN]", "values": [{"measurement": "MIC", "setting": "[1]", "result": "> 256", "unit": "µg/mL"}, {"measurement": "MIC", "setting": "[2]", "result": 4, "unit": "µg/mL"}, {"measurement": "MIC", "setting": "[3]", "result": "> 32", "unit": "µg/mL"}, {"measurement": "MIC", "setting": "[4]", "result": "> 256", "unit": "µg/mL"}, {"measurement": "MIC", "setting": "[5]", "result": "> 256", "unit": "µg/mL"}]}
{"compound": "C[C@H]1[C@H](NC(=O)/C(=N\\OC(C)(C)C(=O)O)c2csc(N)n2)C(=O)N1S(=O)(=O)O", "note": "[AZTREONAM]", "values": [{"measurement": "MIC", "setting": "[1]", "result": "> 256", "unit": "µg/mL"}, {"measurement": "MIC", "setting": "[2]", "result": 1.5, "unit": "µg/mL"}, {"measurement": "MIC", "setting": "[3]", "result": "> 256", "unit": "µg/mL"}, {"measurement": "MIC", "setting": "[4]", "result": "> 256", "unit": "µg/mL"}, {"measurement": "MIC", "setting": "[5]", "result": "> 256", "unit": "µg/mL"}]}
{"compound": "CO/N=C(\\C(=O)N[C@@H]1C(=O)N2C(C(=O)[O-])=C(C[N+]3(C)CCCC3)CS[C@H]12)c1csc(N)n1", "note": "[CEFEPIME]", "values": [{"measurement": "MIC", "setting": "[1]", "result": "> 256", "unit": "µg/mL"}, {"measurement": "MIC", "setting": "[3]", "result": "> 256", "unit": "µg/mL"}, {"measurement": "MIC", "setting": "[4]", "result": "> 256", "unit": "µg/mL"}, {"measurement": "MIC", "setting": "[5]", "result": "> 256", "unit": "µg/mL"}]}
{"compound": "CC(C)(O/N=C(\\C(=O)N[C@@H]1C(=O)N2C(C(=O)[O-])=C(C[n+]3ccccc3)CS[C@H]12)c1csc(N)n1)C(=O)O", "note": "[CEFTAZIDIME]", "values": [{"measurement": "MIC", "setting": "[1]", "result": "> 256", "unit": "µg/mL"}, {"measurement": "MIC", "setting": "[2]", "result": 1, "unit": "µg/mL"}, {"measurement": "MIC", "setting": "[3]", "result": "> 256", "unit": "µg/mL"}, {"measurement": "MIC", "setting": "[4]", "result": "> 256", "unit": "µg/mL"}, {"measurement": "MIC", "setting": "[5]", "result": "> 256", "unit": "µg/mL"}]}
{"compound": "O=C(O)c1cn(C2CC2)c2cc(N3CCNCC3)c(F)cc2c1=O", "note": "[CIPROFLOXACIN]", "values": [{"measurement": "MIC", "setting": "[1]", "result": "> 32", "unit": "µg/mL"}, {"measurement": "MIC", "setting": "[3]", "result": 0.064, "unit": "µg/mL"}, {"measurement": "MIC", "setting": "[4]", "result": "> 32", "unit": "µg/mL"}, {"measurement": "MIC", "setting": "[5]", "result": "> 32", "unit": "µg/mL"}]}
{"compound": "C[C@@H](O)[C@H]1C(=O)N2C(C(=O)O)=C(SCCNC=N)C[C@H]12", "note": "[IMIPENEM ANHYDROUS]", "values": [{"measurement": "MIC", "setting": "[1]", "result": "> 32", "unit": "µg/mL"}, {"measurement": "MIC", "setting": "[2]", "result": 1, "unit": "µg/mL"}, {"measurement": "MIC", "setting": "[3]", "result": 8, "unit": "µg/mL"}, {"measurement": "MIC", "setting": "[4]", "result": "> 32", "unit": "µg/mL"}, {"measurement": "MIC", "setting": "[5]", "result": "> 32", "unit": "µg/mL"}, {"measurement": "MIC", "setting": "[6]", "result": 4, "unit": "µg/mL"}]}
{"compound": "C[C@@H](O)[C@H]1C(=O)N2C(C(=O)O)=C(S[C@@H]3CN[C@H](C(=O)N(C)C)C3)[C@H](C)[C@H]12", "note": "[MEROPENEM]", "values": [{"measurement": "MIC", "setting": "[1]", "result": "> 32", "unit": "µg/mL"}, {"measurement": "MIC", "setting": "[2]", "result": 0.25, "unit": "µg/mL"}, {"measurement": "MIC", "setting": "[3]", "result": "> 32", "unit": "µg/mL"}, {"measurement": "MIC", "setting": "[4]", "result": "> 32", "unit": "µg/mL"}, {"measurement": "MIC", "setting": "[5]", "result": "> 32", "unit": "µg/mL"}]}
{"compound": "CCN1CCN(C(=O)N[C@@H](C(=O)N[C@@H]2C(=O)N3[C@@H]2SC(C)(C)[C@@H]3C(=O)O)c2ccccc2)C(=O)C1=O", "note": "[PIPERACILLIN]", "values": [{"measurement": "MIC", "setting": "[7]", "result": "> 256", "unit": "µg/mL"}, {"measurement": "MIC", "setting": "[1]", "result": "> 256", "unit": "µg/mL"}, {"measurement": "MIC", "setting": "[2]", "result": 3, "unit": "µg/mL"}, {"measurement": "MIC", "setting": "[3]", "result": "> 256", "unit": "µg/mL"}, {"measurement": "MIC", "setting": "[8]", "result": "> 256", "unit": "µg/mL"}, {"measurement": "MIC", "setting": "[4]", "result": "> 256", "unit": "µg/mL"}, {"measurement": "MIC", "setting": "[5]", "result": "> 256", "unit": "µg/mL"}, {"measurement": "MIC", "setting": "[9]", "result": "> 256", "unit": "µg/mL"}, {"measurement": "MIC", "setting": "[10]", "result": "> 256", "unit": "µg/mL"}, {"measurement": "MIC", "setting": "[11]", "result": 2, "unit": "µg/mL"}]}
{"compound": "NC[C@H]1O[C@H](O[C@H]2[C@H](O)[C@@H](O[C@H]3O[C@H](CO)[C@@H](O)[C@H](N)[C@H]3O)[C@H](N)C[C@@H]2N)[C@H](N)C[C@@H]1O", "note": "[TOBRAMYCIN]", "values": [{"measurement": "MIC", "setting": "[1]", "result": "> 256", "unit": "µg/mL"}, {"measurement": "MIC", "setting": "[2]", "result": 1, "unit": "µg/mL"}, {"measurement": "MIC", "setting": "[3]", "result": 16, "unit": "µg/mL"}, {"measurement": "MIC", "setting": "[4]", "result": "> 256", "unit": "µg/mL"}, {"measurement": "MIC", "setting": "[5]", "result": "> 256", "unit": "µg/mL"}]}
{"compound": "COLISTIN", "values": [{"measurement": "MIC", "setting": "[1]", "result": 2, "unit": "µg/mL"}, {"measurement": "MIC", "setting": "[2]", "result": 1, "unit": "µg/mL"}, {"measurement": "MIC", "setting": "[3]", "result": 1, "unit": "µg/mL"}, {"measurement": "MIC", "setting": "[4]", "result": 2, "unit": "µg/mL"}, {"measurement": "MIC", "setting": "[5]", "result": 2, "unit": "µg/mL"}]}
{"compound": "GENTAMICIN", "values": [{"measurement": "MIC", "setting": "[1]", "result": "> 256", "unit": "µg/mL"}, {"measurement": "MIC", "setting": "[2]", "result": 2, "unit": "µg/mL"}, {"measurement": "MIC", "setting": "[4]", "result": "> 256", "unit": "µg/mL"}, {"measurement": "MIC", "setting": "[5]", "result": "> 256", "unit": "µg/mL"}]}
